# Patent US20250381133A1, “ARTICLE IN THE FORM OF EDIBLE SHEET” (TECOZYME INC, priority 2020, published 2025)
# Tested on: mouse tongue
# Experiment: In vivo biostability / mucoadhesiveness on mouse tongue
# Set-up: species or system ICR mice
# Details: after 60 minutes, high salivary flow; FIG. 19
# Procedure: Eight-week-old ICR mice were anesthetized with 100mg/kg of ketamine and 16.7 mg/kg of xylazine cocktail. 10 mg of the oral patch was applied to the tongue. 0.2 mg/kg of Pilocarpine was administered intraperitoneally to stimulate salivation. Tongue tissues were harvested at 30 and 60 minutes post-injection for SEM and fluorescence imaging.
substance,measurement,value
"unencapsulated FITC-BSA: FITC-labeled bovine serum albumin, not loaded in a patch",retention of FITC-BSA on the tongue surface,completely washed away
